Assay results as given in patent publication US8883745B2, “C—glycolipids with enhanced Th-1 profile” (New York University, priority 2006, dated 2014).

Columns and labels:
Assay type in all cases: in vivo
IFN-γ [1] = assay: IFN-γ levels in sera upon i.v. glycolipid administration to BALB/c mice (ELISA); parameters: IFN-γ levels, test 1 / IFN-γ levels, test 2 / IFN-γ levels, average / IFN-γ levels, Total: unit not given here; details: BALB/c
Procedure: (§1) Five- to six-week-old female C57BL/6 mice and BALB/c mice were purchased from Taconic. Each glycolipid was stored at 1 mg/ml in 100% DMSO. Mice were injected intravenously with 1 μg of each glyocolipid diluted in 200 μL sterile phosphate buffered saline (PBS). At indicated time points, sera were collected from each animal, and concentrations of IFN-γ, IL-4, and IL-12 in the sera were evaluated by enzyme-linked immunosorbent assay (ELISA). Serum concentrations of IFN-γ, IL-4, and IL-12 were evaluated using an ELISA kit (eBioscience, San Diego, Calif.). Briefly, 96 well flat-bottom ELISA plates (NUNC) were coated with capture antibody according to the manufacture's recommendation and incubated overnight at 4° C. The plates were washed with PBS+0.05% Tween 20 (PBS-T), then incubated with manufacturer provided blocking solution for 1 hr at room temperature to block non-specific binding sites. After washing with PBS-T, sera diluted 1:10 was added to the wells and incubated for 2 hrs at room temperature. Plates were then incubated at room temperature for 1 hr with biotintylated detection antibody, washed, incubated with avidin conjugated to horse radish peroxidase (HRP) for 30 min at room temperature, washed, and finally incubated with tetramethylbenzidine substrate solution in the dark for 10 minutes at room temperature. The antibodies, avidin-HRP, and substrate solution were all diluted according to the manufacture's recommendation. Reactions were stopped with 2.0N sulfuric acid and the cytokine concentration in each well was determined by comparing the absorbance at 450 nm in each well to known standards. The levels of Th1- and Th2-type cytokines were determined in two different genetic backgrounds, i.e., in C57BL/6 mice and BALB/c mice. The following compounds were administered: A=compound (A-1 trans-conformer), B=compound (A-2), C=compound (A-3), D=compound (A-4), E=compound (A-5), Z=control (PBS alone), CRONY=α-C-GalCer, KRN=α-GalCer, GCK109 (A-1 trans-conformer), GCK151 (A-1 cis-conformer), GCK152 (A-7). The levels of cytokines were measured at 0, 2, 6, 12, 24, 48, and 72 hours after the compound administration. The levels of Th1-type cytokines IFN-γ and IL-12 are summarized in FIGS. 2A-C and 3A-C, respectively. Table 7 provides IFN-γ/IL-4 and IL-12/IL-4 ratios for various compounds, which can be used as indicators of their ability to selectively stimulate Th1-type immune responses.

IFN-γ [2] = assay: IFN-γ levels in sera upon i.v. glycolipid administration to C57BL/6 mice (ELISA); parameters: IFN-γ levels, test 1 / IFN-γ levels, test 2 / IFN-γ levels, average / IFN-γ levels, Total / IFN-γ (B6): unit not given here
Procedure: as §1

IL-12 = IL-12 levels in sera upon i.v. glycolipid administration to BALB/c mice (ELISA); parameters: IL-12 levels, test 1 / IL-12 levels, test 2 / IL-12 levels, average / IL-12 levels, Total: unit not given here
Procedure: as §1

IL-4 = IL-4 levels in sera upon i.v. glycolipid administration to BALB/c mice (ELISA); parameters: unit not given here
Procedure: as §1

[3] = ratio calculated from Tables 1-6

## CCCCCCCCCCCCCC[C@@H](O)[C@@H](O)[C@H](CC[C@H]1O[C@H](CO)[C@H](O)[C@H](O)[C@H]1O)NC(=O)CCCCCCCCCCCCCCCCCCCOCCCCCC [A-4]
IFN-γ [1]; [3]
  IFN-γ/IL-4 (BALB/c): 44
IFN-γ [1]; serum, hour 0
  IFN-γ levels, average: 27
  IFN-γ levels, test 1: 27
  IFN-γ levels, test 2: 27
IFN-γ [1]; serum, hour 2
  IFN-γ levels, average: 142.5
  IFN-γ levels, test 1: 140
  IFN-γ levels, test 2: 145
IFN-γ [1]; serum, hour 6
  IFN-γ levels, average: 1742
  IFN-γ levels, test 1: 1778
  IFN-γ levels, test 2: 1706
IFN-γ [1]; serum, hour 12
  IFN-γ levels, average: 6513.5
  IFN-γ levels, test 1: 4988
  IFN-γ levels, test 2: 8039
IFN-γ [1]; serum, hour 24
  IFN-γ levels, average: 14100
  IFN-γ levels, test 1: 14000
  IFN-γ levels, test 2: 14200
IFN-γ [1]; serum, hour 48
  IFN-γ levels, average: 929.5
  IFN-γ levels, test 1: 752
  IFN-γ levels, test 2: 1107
IFN-γ [1]; serum, hour 72
  IFN-γ levels, average: 56.5
  IFN-γ levels, test 1: 47
  IFN-γ levels, test 2: 66
IFN-γ [1]; serum, total over hours 0-72
  IFN-γ levels, Total: 22676
IFN-γ [2]; C57BL/6, ratio calculated from Tables 1-6
  IFN-γ/IL-4 (B6): 10
IFN-γ [2]; C57BL/6, serum, hour 0
  IFN-γ levels, average: 31
  IFN-γ levels, test 1: 31
  IFN-γ levels, test 2: 31
IFN-γ [2]; C57BL/6, serum, hour 2
  IFN-γ levels, average: 308.5
  IFN-γ levels, test 1: 255
  IFN-γ levels, test 2: 362
IFN-γ [2]; C57BL/6, serum, hour 6
  IFN-γ levels, average: 1329
  IFN-γ levels, test 1: 1381
  IFN-γ levels, test 2: 1277
IFN-γ [2]; C57BL/6, serum, hour 12
  IFN-γ levels, average: 2335.5
  IFN-γ levels, test 1: 2466
  IFN-γ levels, test 2: 2205
IFN-γ [2]; C57BL/6, serum, hour 24
  IFN-γ levels, average: 5563.5
  IFN-γ levels, test 1: 5291
  IFN-γ levels, test 2: 5836
IFN-γ [2]; C57BL/6, serum, hour 48
  IFN-γ levels, average: 742
  IFN-γ levels, test 1: 581
  IFN-γ levels, test 2: 903
IFN-γ [2]; C57BL/6, serum, hour 72
  IFN-γ levels, average: 220.5
  IFN-γ levels, test 1: 245
  IFN-γ levels, test 2: 196
IFN-γ [2]; C57BL/6, serum, total over hours 0-72
  IFN-γ levels, Total: 10532
IL-12; [3]
  IL-12/IL-4 (BALB/c): 12
IL-12; serum, hour 0
  IL-12 levels, average: 5
  IL-12 levels, test 1: 5
  IL-12 levels, test 2: 5
IL-12; serum, hour 2
  IL-12 levels, average: 54.5
  IL-12 levels, test 1: 57
  IL-12 levels, test 2: 52
IL-12; serum, hour 6
  IL-12 levels, average: 914.5
  IL-12 levels, test 1: 730
  IL-12 levels, test 2: 1099
IL-12; serum, hour 12
  IL-12 levels, average: 4463
  IL-12 levels, test 1: 3799
  IL-12 levels, test 2: 5127
IL-12; serum, hour 24
  IL-12 levels, average: 333.5
  IL-12 levels, test 1: 396
  IL-12 levels, test 2: 271
IL-12; serum, hour 48
  IL-12 levels, average: 89
  IL-12 levels, test 1: 58
  IL-12 levels, test 2: 120
IL-12; serum, hour 72
  IL-12 levels, average: 64.5
  IL-12 levels, test 1: 78
  IL-12 levels, test 2: 51
IL-12; serum, total over hours 0-72
  IL-12 levels, Total: 5926
IL-4; hour 0
  IL-4 level, average: 27
  IL-4 level, test 1: 27
  IL-4 level, test 2: 27
IL-4; hour 2
  IL-4 level, average: 207
  IL-4 level, test 1: 200
  IL-4 level, test 2: 214
IL-4; hour 6
  IL-4 level, average: 79.5
  IL-4 level, test 1: 85
  IL-4 level, test 2: 74
IL-4; hour 12
  IL-4 level, average: 58
  IL-4 level, test 1: 64
  IL-4 level, test 2: 52
IL-4; hour 24
  IL-4 level, average: 67.5
  IL-4 level, test 1: 50
  IL-4 level, test 2: 85
IL-4; hour 48
  IL-4 level, average: 59
  IL-4 level, test 1: 52
  IL-4 level, test 2: 66
IL-4; hour 72
  IL-4 level, average: 12
  IL-4 level, test 1: 12
  IL-4 level, test 2: 12
IL-4; total over hours 0-72
  IL-4 level, Total: 511
